These results are taken from US20260022142A1, “MACROCYCLIC IMMUNOMODULATORS” (Bristol-Myers Squibb Company, priority 2022, published 2026).

pIC50: −log10 of the molar value. Bridge positions count the residues as written; N and C are the ends. Square brackets hold non-standard residues; d marks the D form. Peptide text beside a SMILES is read from it. * marks the point of attachment. ξ: configuration not given here. Phe(4-CH2CH2COOH) = N[C@@H](Cc1ccc(CCC(=O)O)cc1)C(=O)O; Phe(3-CF3) = N[C@@H](Cc1cccc(C(F)(F)F)c1)C(=O)O; Phe(4-COOH) = N[C@@H](Cc1ccc(C(=O)O)cc1)C(=O)O; Bip = N[C@@H](Cc1ccc(-c2ccccc2)cc1)C(=O)O; Abu(4,4,4-F3) = N[C@@H](CC(F)(F)F)C(=O)O; NH(CH2)14COOH = O=C(O)CCCCCCCCCCCCCCN*; Phe(3-Me) = Cc1cccc(C[C@H](N)C(=O)O)c1; NH(CH2)12COOH = O=C(O)CCCCCCCCCCCCN*; Val(3-OH) = CC(C)(O)[C@H](N)C(=O)O; Cha = N[C@@H](CC1CCCCC1)C(=O)O; Thr(3ξ) = CC(O)[C@H](N)C(=O)O; Carboxymethyl = O=C(O)C*; Nle = CCCC[C@H](N)C(=O)O; Orn = NCCC[C@H](N)C(=O)O; Dab = NCC[C@H](N)C(=O)O; AEEA = NCCOCCOCC(=O)O; CF3 = FC(F)(F)*

T1 sequence (Q15116 25-288): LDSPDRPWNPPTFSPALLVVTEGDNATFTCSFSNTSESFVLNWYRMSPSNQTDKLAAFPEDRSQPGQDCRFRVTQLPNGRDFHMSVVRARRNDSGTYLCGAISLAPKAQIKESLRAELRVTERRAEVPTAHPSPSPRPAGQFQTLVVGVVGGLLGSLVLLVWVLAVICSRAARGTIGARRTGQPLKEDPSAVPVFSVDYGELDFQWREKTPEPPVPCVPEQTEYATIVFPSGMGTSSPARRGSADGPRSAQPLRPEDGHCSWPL

This experiment concerns the target T1, PD-1/PD-L1 interaction (PE-labeled human PD-L1-Ig binding to Jurkat cell line over-expressing human PD-1) (Homo sapiens, UniProt Q15116).
T1 construct: expressed in transfected cells; host or cells: Jurkat
Briefly: Jurkat-PD-1 Cell Binding High-Content Screening Assay (CBA). The class given is cell-based. As to conditions: Jurkat cell line over-expressing human PD-1; PE-labeled PD-L1-Ig 20 nM final; read-out: Jurkat hPD1-PDL1 IC50. Put shortly: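 Read-out is high-content imaging of cell-bound phycoerythrin-tagged PD-L1-Ig on fixed, Hoechst-counterstained Jurkat cells that over-express human PD-1. Compound exposure lasts 2 h at 37° C before the labeled ligand (20 nM final) is added for a further hour.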
In the case of `Cc1cccc(C[C@@H]2NC(=O)[C@H](CC(=O)O)NC(=O)[C@H](Cc3ccc(OCC(=O)O)cc3)NC(=O)[C@H](C)NC(=O)CSC[C@@H](C(=O)N[C@@H](CCN)C(=O)NCCOCCOCC(=O)NCCOCCOCC(=O)NCCCCCCCCCCCCCCC(=O)O)NC(=O)[C@H](CO)NC(=O)[C@H](C(C)(C)O)NC(=O)[C@H](CC3CCCCC3)NC(=O)[C@H](CCN)NC(=O)[C@@H](CC(C)C)NC(=O)[C@H](CCCN)NC(=O)[C@H](Cc3ccc(C(=O)O)cc3)NC(=O)[C@H](Cc3ccc(-c4ccccc4)cc3)NC(=O)[C@H](Cc3ccc(C(=O)O)cc3)NC2=O)c1` [Compound 3853] ({CH2CO}-AY(Carboxymethyl)D[Phe(3-Me)][Phe(4-COOH)][Bip][Phe(4-COOH)][Orn][dL][Dab][Cha][Val(3-OH)]SC[Dab][AEEA][AEEA]-{NH(CH2)14COOH}; thioether N-14), the pIC50 was 6.99. Take `Cc1cccc(C[C@@H]2NC(=O)[C@H](CC(=O)O)NC(=O)[C@H](Cc3ccc(OCC(=O)O)cc3)NC(=O)[C@H](C)NC(=O)CSC[C@@H](C(=O)N[C@@H](CCN)C(=O)NCCOCCOCC(=O)NCCOCCOCC(=O)NCCOCCOCC(=O)NCCCCCCCCCCCCCCC(=O)O)NC(=O)[C@H](CO)NC(=O)[C@H](C(C)(C)O)NC(=O)[C@H](CC3CCCCC3)NC(=O)[C@H](CCN)NC(=O)[C@@H](CC(C)C)NC(=O)[C@H](CCCN)NC(=O)[C@H](Cc3ccc(C(=O)O)cc3)NC(=O)[C@H](Cc3ccc(-c4ccccc4)cc3)NC(=O)[C@H](Cc3ccc(C(=O)O)cc3)NC2=O)c1` [Compound 3854] ({CH2CO}-AY(Carboxymethyl)D[Phe(3-Me)][Phe(4-COOH)][Bip][Phe(4-COOH)][Orn][dL][Dab][Cha][Val(3-OH)]SC[Dab][AEEA][AEEA][AEEA]-{NH(CH2)14COOH}; thioether N-14): the pIC50 was 7.34. For `Cc1cccc(C[C@@H]2NC(=O)[C@H](CC(=O)O)NC(=O)[C@H](Cc3ccc(OCC(=O)O)cc3)NC(=O)[C@H](C)NC(=O)CSC[C@@H](C(=O)N[C@@H](CCN)C(=O)NCCOCCOCC(=O)NCCOCCOCC(=O)NCCCCCCCCCCCCCCC(=O)O)NC(=O)[C@H](Cc3cnc[nH]3)NC(=O)[C@H](C(C)(C)O)NC(=O)[C@H](CC3CCCCC3)NC(=O)[C@H](CCN)NC(=O)[C@@H](CC(C)C)NC(=O)[C@H](CCCN)NC(=O)[C@H](Cc3ccc(C(=O)O)cc3)NC(=O)[C@H](Cc3ccc(-c4ccccc4)cc3)NC(=O)[C@H](Cc3ccc(C(=O)O)cc3)NC2=O)c1` [Compound 3855] ({CH2CO}-AY(Carboxymethyl)D[Phe(3-Me)][Phe(4-COOH)][Bip][Phe(4-COOH)][Orn][dL][Dab][Cha][Val(3-OH)]HC[Dab][AEEA][AEEA]-{NH(CH2)14COOH}; thioether N-14) the value was 6.92.

Turning to `Cc1cccc(C[C@@H]2NC(=O)[C@H](CC(=O)O)NC(=O)[C@H](Cc3ccc(OCC(=O)O)cc3)NC(=O)[C@H](C)NC(=O)CSC[C@@H](C(=O)N[C@@H](CCN)C(=O)NCCOCCOCC(=O)NCCOCCOCC(=O)NCCOCCOCC(=O)NCCCCCCCCCCCCCCC(=O)O)NC(=O)[C@H](Cc3cnc[nH]3)NC(=O)[C@H](C(C)(C)O)NC(=O)[C@H](CC3CCCCC3)NC(=O)[C@H](CCN)NC(=O)[C@@H](CC(C)C)NC(=O)[C@H](CCCN)NC(=O)[C@H](Cc3ccc(C(=O)O)cc3)NC(=O)[C@H](Cc3ccc(-c4ccccc4)cc3)NC(=O)[C@H](Cc3ccc(C(=O)O)cc3)NC2=O)c1` [Compound 3856] ({CH2CO}-AY(Carboxymethyl)D[Phe(3-Me)][Phe(4-COOH)][Bip][Phe(4-COOH)][Orn][dL][Dab][Cha][Val(3-OH)]HC[Dab][AEEA][AEEA][AEEA]-{NH(CH2)14COOH}; thioether N-14), the pIC50 was 7.03. For the compound `CC(C)C[C@H]1NC(=O)[C@H](Cc2cnc[nH]2)NC(=O)[C@H](Cc2ccc(C(=O)O)cc2)NC(=O)[C@H](Cc2ccc(-c3ccccc3)cc2)NC(=O)[C@H](Cc2ccc(C(=O)O)cc2)NC(=O)[C@H](Cc2cccc(C(F)(F)F)c2)NC(=O)[C@H](CC(=O)O)NC(=O)[C@H](Cc2ccc(OCC(=O)O)cc2)NC(=O)[C@H](CC(F)(F)F)NC(=O)CSC[C@@H](C(=O)N[C@@H](CCN)C(=O)NCCCCCCCCCCCCC(=O)O)NC(=O)[C@H](CO)NC(=O)[C@H](C(C)(C)O)NC(=O)[C@H](CC2CCCCC2)NC(=O)[C@H](CCN)NC1=O` [Compound 3857] ({CH2CO}-[Abu(4,4,4-F3)]Y(Carboxymethyl)D[Phe(3-CF3)][Phe(4-COOH)][Bip][Phe(4-COOH)]H[dL][Dab][Cha][Val(3-OH)]SC[Dab]-{NH(CH2)12COOH}; thioether N-14), the pIC50 was 6.78. As for `CC(=O)NCCCC[C@@H]1NC(=O)[C@H](C(C)(C)O)NC(=O)[C@H](CC2CCCCC2)NC(=O)[C@H](CCN)NC(=O)[C@@H](CC(C)C)NC(=O)[C@H](CCCN)NC(=O)[C@H](Cc2ccc(C(=O)O)cc2)NC(=O)[C@H](Cc2ccc(-c3ccccc3)cc2)NC(=O)[C@H](Cc2ccc(C(=O)O)cc2)NC(=O)[C@H](Cc2cccc(C)c2)NC(=O)[C@H](CC(=O)O)NC(=O)[C@H](Cc2ccc(OC(F)(F)F)cc2)NC(=O)[C@H](Cc2ccc(OCC(=O)O)cc2)NC(=O)CSC[C@@H](C(=O)N[C@@H](CCN)C(=O)NCCOCCOCC(=O)NCCCCCCCCCCCCC(=O)O)NC1=O` [Compound 3859] ({CH2CO}-Y(Carboxymethyl)Y(CF3)D[Phe(3-Me)][Phe(4-COOH)][Bip][Phe(4-COOH)][Orn][dL][Dab][Cha][Val(3-OH)]K(Ac)C[Dab][AEEA]-{NH(CH2)12COOH}; thioether N-14), the negative-log IC50 (pIC50) is 7.28. In the case of `CC(C)C[C@H]1NC(=O)[C@H](Cc2cnc[nH]2)NC(=O)[C@H](Cc2ccc(OCC(=O)O)cc2)NC(=O)[C@H](Cc2ccc(-c3ccccc3)cc2)NC(=O)[C@H](Cc2ccc(C(=O)O)cc2)NC(=O)[C@H](Cc2cccc(C(F)(F)F)c2)NC(=O)[C@H](CC(=O)O)NC(=O)[C@H](Cc2ccc(OCC(=O)O)cc2)NC(=O)[C@H](C(C)O)NC(=O)CSC[C@@H](C(=O)N[C@@H](CCN)C(=O)NCCCCCCCCCCCCCCC(=O)O)NC(=O)[C@H](C(C)O)NC(=O)[C@H](C(C)(C)O)NC(=O)[C@H](CC2CCCCC2)NC(=O)[C@H](CCN)NC1=O` (stereo partly drawn) [Compound 3861] ({CH2CO}-[Thr(3ξ)]Y(Carboxymethyl)D[Phe(3-CF3)][Phe(4-COOH)][Bip]Y(Carboxymethyl)H[dL][Dab][Cha][Val(3-OH)][Thr(3ξ)]C[Dab]-{NH(CH2)14COOH}; thioether N-14), the pIC50 was 6.46.

For `CC(C)C[C@H]1NC(=O)[C@H](Cc2cnc[nH]2)NC(=O)[C@H](Cc2ccc(OCC(=O)O)cc2)NC(=O)[C@H](Cc2ccc(-c3ccccc3)cc2)NC(=O)[C@H](Cc2ccc(C(=O)O)cc2)NC(=O)[C@H](Cc2cccc(C(F)(F)F)c2)NC(=O)[C@H](CC(=O)O)NC(=O)[C@H](Cc2ccc(OCC(=O)O)cc2)NC(=O)[C@H](C)NC(=O)CSC[C@@H](C(=O)N[C@@H](CCN)C(=O)NCCCCCCCCCCCCCCC(=O)O)NC(=O)[C@H](C(C)O)NC(=O)[C@H](C(C)(C)O)NC(=O)[C@H](CC2CCCCC2)NC(=O)[C@H](CCN)NC1=O` (stereo partly drawn) [Compound 3862] ({CH2CO}-AY(Carboxymethyl)D[Phe(3-CF3)][Phe(4-COOH)][Bip]Y(Carboxymethyl)H[dL][Dab][Cha][Val(3-OH)][Thr(3ξ)]C[Dab]-{NH(CH2)14COOH}; thioether N-14), the negative-log IC50 (pIC50) was 6.43. The value for `CCCC[C@@H]1NC(=O)CSC[C@@H](C(=O)N[C@@H](CCN)C(=O)NCCCCCCCCCCCCCCC(=O)O)NC(=O)[C@H](C(C)O)NC(=O)[C@H](C(C)(C)O)NC(=O)[C@H](CC2CCCCC2)NC(=O)[C@H](CCN)NC(=O)[C@@H](CC(C)C)NC(=O)[C@H](Cc2cnc[nH]2)NC(=O)[C@H](Cc2ccc(OCC(=O)O)cc2)NC(=O)[C@H](Cc2ccc(-c3ccccc3)cc2)NC(=O)[C@H](Cc2ccc(C(=O)O)cc2)NC(=O)[C@H](Cc2cccc(C(F)(F)F)c2)NC(=O)[C@H](CC(=O)O)NC(=O)[C@H](Cc2ccc(OCC(=O)O)cc2)NC1=O` (stereo partly drawn) [Compound 3863] ({CH2CO}-[Nle]Y(Carboxymethyl)D[Phe(3-CF3)][Phe(4-COOH)][Bip]Y(Carboxymethyl)H[dL][Dab][Cha][Val(3-OH)][Thr(3ξ)]C[Dab]-{NH(CH2)14COOH}; thioether N-14) was 6.37. With `CC(=O)NCCCC[C@@H]1NC(=O)[C@H](C(C)(C)O)NC(=O)[C@H](CC2CCCCC2)NC(=O)[C@H](CCN)NC(=O)[C@@H](CC(C)C)NC(=O)[C@H](CCCN)NC(=O)[C@H](Cc2ccc(C(=O)O)cc2)NC(=O)[C@H](Cc2ccc(-c3ccccc3)cc2)NC(=O)[C@H](Cc2ccc(C(=O)O)cc2)NC(=O)[C@H](Cc2cccc(C)c2)NC(=O)[C@H](CC(=O)O)NC(=O)[C@H](Cc2ccc(OCC(=O)O)cc2)NC(=O)[C@H](Cc2ccc(OCC(=O)O)cc2)NC(=O)CSC[C@@H](C(=O)N[C@@H](CCN)C(=O)NCCCCCCCCCCCCCCC(=O)O)NC1=O` [Compound 3865] ({CH2CO}-Y(Carboxymethyl)Y(Carboxymethyl)D[Phe(3-Me)][Phe(4-COOH)][Bip][Phe(4-COOH)][Orn][dL][Dab][Cha][Val(3-OH)]K(Ac)C[Dab]-{NH(CH2)14COOH}; thioether N-14), the pIC50 is 6.92. For `CC(C)C[C@H]1NC(=O)[C@H](CCCN)NC(=O)[C@H](Cc2ccc(OCC(=O)O)cc2)NC(=O)[C@H](Cc2ccc(-c3ccccc3)cc2)NC(=O)[C@H](Cc2ccc(CCC(=O)O)cc2)NC(=O)[C@H](Cc2cccc(C(F)(F)F)c2)NC(=O)[C@H](CC(=O)O)NC(=O)[C@H](Cc2ccc(OC(F)(F)F)cc2)NC(=O)[C@H](C)NC(=O)CSC[C@@H](C(=O)N[C@@H](CCN)C(=O)NCCCCCCCCCCCCCCC(=O)O)NC(=O)[C@H](CCC(=O)O)NC(=O)[C@H](C(C)C)NC(=O)[C@H](CC2CCCCC2)NC(=O)[C@H](CCN)NC1=O` [Compound 3866] ({CH2CO}-AY(CF3)D[Phe(3-CF3)][Phe(4-CH2CH2COOH)][Bip]Y(Carboxymethyl)[Orn][dL][Dab][Cha]VEC[Dab]-{NH(CH2)14COOH}; thioether N-14) the value was 6.17.
